According to US20060069132A1, “Azolecarboxamide herbicides” (priority 2004, published 2006):
Like-named read-outs stand apart in the source and are kept apart here.

Columns and labels:
[1] = tested on: morningglory; test: Test A pre-/postemergence herbicide test; format: in vivo, Ipomoea spp.; conditions: Ipomoea, 240 h; for pest or weed control at 500 g/ha: 500 g ai/ha; for pest or weed control at 2000 g/ha: 2000 g ai/ha
In short: (§1)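 Visual injury rating on a 0–100 scale (0 no effect, 100 complete control) versus untreated controls, about ten days after treatment in greenhouse. Pre: directed soil spray onto seeded sandy loam. Post: spray to runoff on plants 2–10 cm tall at one- to two-leaf stage.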

[2] = tested on: velvetleaf; test: Test A pre-/postemergence herbicide test; format: in vivo, Abutilon theophrasti; conditions: Abutilon theophrasti, 240 h; for pest or weed control at 500 g/ha: 500 g ai/ha; for pest or weed control at 2000 g/ha: 2000 g ai/ha
In short: as §1

[3] = tested on: bermudagrass; test: Test C pre-/postemergence herbicide test; format: in vivo, Cynodon dactylon; conditions: Cynodon dactylon, pre-emergence, 312 h; for pest or weed control at 62 g/ha: 62 g ai/ha, preemergence; for pest or weed control at 62 g/ha / pest or weed control at 500 g/ha: scale 0 to 100, 0 no effect, 100 complete control; for pest or weed control at 62 g/ha / pest or weed control at 125 g/ha / pest or weed control at 250 g/ha: read-out: Plant response rating, Bermudagrass; for pest or weed control at 125 g/ha: 125 g ai/ha, scale 0 (no effect) to 100 (complete control), visual, 12 to 14 days; for pest or weed control at 250 g/ha: 250 g ai/ha, scale 0-100; for pest or weed control at 500 g/ha: Preemergence, 500 g ai/ha, read-out: Bermudagrass plant response rating
In short: (§2)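 Pre- and postemergence application, solvent/surfactant formulation; post at 1- to 4-leaf stage (2–18 cm). Greenhouse 12–14 d. Visual rating vs controls, 0 = no effect, 100 = complete control.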

[4] = tested on: Surinam grass; test: Test C pre-/postemergence herbicide test; format: in vivo, Urochloa decumbens; conditions: Urochloa decumbens, pre-emergence, 312 h, read-out: Plant response rating, Surinam Grass; for pest or weed control at 62 g/ha: 62 g ai/ha, preemergence, scale 0 to 100; for pest or weed control at 250 g/ha: 250 g ai/ha, scale 0-100; for pest or weed control at 500 g/ha: 500 g ai/ha, scale 0 to 100 (0 no effect, 100 complete control), visual, 12 to 14 days
In short: as §2

[5] = tested on: cocklebur; test: Test C pre-/postemergence herbicide test; format: in vivo, Xanthium strumarium; conditions: Xanthium strumarium, pre-emergence, 312 h; for pest or weed control at 62 g/ha: 62 g ai/ha, preemergence, scale 0 to 100; for pest or weed control at 62 g/ha / pest or weed control at 125 g/ha / pest or weed control at 250 g/ha: read-out: Plant response rating, Cocklebur; for pest or weed control at 125 g/ha: 125 g ai/ha, scale 0 (no effect) to 100 (complete control), visual, 12 to 14 days; for pest or weed control at 250 g/ha: 250 g ai/ha, scale 0-100; for pest or weed control at 500 g/ha: Preemergence, 500 g ai/ha, scale 0 to 100, 0 no effect, 100 complete control, read-out: Cocklebur plant response rating
In short: as §2

[6] = tested on: goosegrass; test: Test C pre-/postemergence herbicide test; format: in vivo, Eleusine indica; conditions: Eleusine indica, pre-emergence, 312 h, read-out: Plant response rating, Goosegrass; for pest or weed control at 62 g/ha: 62 g ai/ha, preemergence, scale 0 to 100; for pest or weed control at 125 g/ha: 125 g ai/ha, scale 0 (no effect) to 100 (complete control); for pest or weed control at 125 g/ha / pest or weed control at 500 g/ha: visual, 12 to 14 days; for pest or weed control at 250 g/ha: 250 g ai/ha, scale 0-100; for pest or weed control at 500 g/ha: 500 g ai/ha, scale 0 to 100 (0 no effect, 100 complete control)
In short: as §2

[7] = tested on: johnsongrass; test: Test C pre-/postemergence herbicide test; format: in vivo, Sorghum halepense; conditions: Sorghum halepense, pre-emergence, read-out: Plant response rating, Johnsongrass; for pest or weed control at 62 g/ha: 62 g ai/ha, preemergence, scale 0 to 100; for pest or weed control at 125 g/ha: 125 g ai/ha, scale 0 (no effect) to 100 (complete control); for pest or weed control at 125 g/ha / pest or weed control at 500 g/ha: visual, 12 to 14 days; for pest or weed control at 250 g/ha: 250 g ai/ha, scale 0-100; for pest or weed control at 500 g/ha: 500 g ai/ha, scale 0 to 100 (0 no effect, 100 complete control)
In short: as §2

[8] = tested on: pigweed; test: Test C pre-/postemergence herbicide test; format: in vivo, Amaranthus retroflexus; conditions: Amaranthus retroflexus, pre-emergence, read-out: Plant response rating, Pigweed; for pest or weed control at 62 g/ha: 62 g ai/ha, preemergence, scale 0 to 100; for pest or weed control at 125 g/ha: 125 g ai/ha, scale 0 (no effect) to 100 (complete control); for pest or weed control at 125 g/ha / pest or weed control at 500 g/ha: visual, 12 to 14 days; for pest or weed control at 250 g/ha: 250 g ai/ha, scale 0-100; for pest or weed control at 500 g/ha: 500 g ai/ha, scale 0 to 100 (0 no effect, 100 complete control)
In short: as §2

[9] = tested on: soybean; test: Test C pre-/postemergence herbicide test; format: in vivo, Glycine max; conditions: Glycine max, pre-emergence, read-out: Plant response rating, Soybean; for plant injury at 62 g/ha: 62 g ai/ha, preemergence, scale 0 to 100; for plant injury at 250 g/ha: 250 g ai/ha, scale 0-100; for plant injury at 500 g/ha: 500 g ai/ha, scale 0 to 100 (0 no effect, 100 complete control), visual, 12 to 14 days
In short: as §2

[10] = tested on: smallflower umbrella sedge; test: Test C flooded paddy test; format: in vivo, Cyperus difformis; conditions: Cyperus difformis; for pest or weed control at 62 g/ha: 62 g ai/ha; for pest or weed control at 125 g/ha: 125 g ai/ha; for pest or weed control at 250 g/ha: 250 g ai/ha, scale of 0 to 100, 0 is no effect, 100 is complete control; for pest or weed control at 500 g/ha: 500 g ai/ha, visual rating after 12 to 14 days, read-out: Plant response rating, Sedge, Umbrella
[11] = tested on: ducksalad; test: Test C flooded paddy test; format: in vivo, Heteranthera limosa; conditions: Heteranthera limosa; for pest or weed control at 62 g/ha: 62 g ai/ha; for pest or weed control at 125 g/ha: 125 g ai/ha; for pest or weed control at 250 g/ha: 250 g ai/ha, scale of 0 to 100, 0 is no effect, 100 is complete control; for pest or weed control at 500 g/ha: 500 g ai/ha, visual rating after 12 to 14 days, read-out: Plant response rating, Ducksalad
[12] = post-emergence, Postemergence, 0 to 100 scale, 0 no effect, 100 complete control, read-out: Morningglory plant response rating
[13] = post-emergence, Postemergence, 0 to 100 scale, 0 no effect, 100 complete control, read-out: Plant response rating, Morningglory
[14] = pre-emergence, Preemergence, visual rating, 0 to 100 scale (0 no effect, 100 complete control), read-out: Morningglory plant response rating
[15] = pre-emergence, preemergence, visual injury, 0 to 100 scale (0 no effect, 100 complete control), read-out: Morningglory plant response rating
[16] = post-emergence, Postemergence, 0 to 100 scale, 0 no effect, 100 complete control, read-out: Velvetleaf plant response rating
[17] = post-emergence, Postemergence, 0 to 100 scale, 0 no effect, 100 complete control, read-out: Plant response rating, Velvetleaf
[18] = pre-emergence, Preemergence, visual rating, 0 to 100 scale (0 no effect, 100 complete control), read-out: Velvetleaf plant response rating
[19] = pre-emergence, preemergence, visual injury, 0 to 100 scale (0 no effect, 100 complete control), read-out: Velvetleaf plant response rating
[20] = scale 0 to 100 (0 no effect, 100 complete control), read-out: Sedge, Umbrella plant response rating
[21] = read-out: Sedge, Umbrella plant response rating
[22] = scale 0 to 100 (0 no effect, 100 complete control)
[23] = scale 0 to 100 (0 no effect, 100 complete control), read-out: Ducksalad plant response rating
[24] = read-out: Ducksalad plant response rating

CCc1nn(C(C)(C)C)cc1C(=O)Nc1cc(C(=O)N(C)C)ccc1F [Compound 222, N-[5-[(dimethylamino)carbonyl]-2-fluorophenyl]-1-(1,1-dimethylethyl)-3-ethyl-1H-pyrazole-4-carboxamide]
pest or weed control at 500 g/ha [1, 12]: 80%
pest or weed control at 2000 g/ha [1, 13]: 95%
pest or weed control at 2000 g/ha [1, 14]: 100%
pest or weed control at 500 g/ha [1, 15]: 75%
pest or weed control at 500 g/ha [2, 16]: 80%
pest or weed control at 2000 g/ha [2, 17]: 100%
pest or weed control at 2000 g/ha [2, 18]: 100%
pest or weed control at 500 g/ha [2, 19]: 95%
pest or weed control at 62 g/ha [3]: 85%
pest or weed control at 125 g/ha [3]: 100%
pest or weed control at 250 g/ha [3]: 100%
pest or weed control at 500 g/ha [3]: 100%
pest or weed control at 62 g/ha [4]: 80%
pest or weed control at 250 g/ha [4]: 100%
pest or weed control at 500 g/ha [4]: 100%
pest or weed control at 62 g/ha [5]: 0%
pest or weed control at 125 g/ha [5]: 20%
pest or weed control at 250 g/ha [5]: 70%
pest or weed control at 500 g/ha [5]: 100%
pest or weed control at 62 g/ha [6]: 80%
pest or weed control at 125 g/ha [6]: 100%
pest or weed control at 250 g/ha [6]: 100%
pest or weed control at 500 g/ha [6]: 100%
pest or weed control at 62 g/ha [7]: 85%
pest or weed control at 125 g/ha [7]: 100%
pest or weed control at 250 g/ha [7]: 100%
pest or weed control at 500 g/ha [7]: 100%
pest or weed control at 62 g/ha [8]: 100%
pest or weed control at 125 g/ha [8]: 100%
pest or weed control at 250 g/ha [8]: 100%
pest or weed control at 500 g/ha [8]: 100%
plant injury at 62 g/ha [9]: 40%
plant injury at 250 g/ha [9]: 100%
plant injury at 500 g/ha [9]: 100%
pest or weed control at 62 g/ha [10, 20]: 65%
pest or weed control at 125 g/ha [10, 20]: 75%
pest or weed control at 250 g/ha [10, 21]: 85%
pest or weed control at 500 g/ha [10, 22]: 90%
pest or weed control at 62 g/ha [11, 23]: 70%
pest or weed control at 125 g/ha [11, 23]: 75%
pest or weed control at 250 g/ha [11, 24]: 85%
pest or weed control at 500 g/ha [11, 22]: 95%

CCN1N=C(C(C)(C)C)CC1C(=O)Nc1cc(C(=O)N(C)C)ccc1F (stereo not drawn) [Compound 268, N-[5-[(dimethylamino)carbonyl]-2-fluorophenyl]-3-(1,1-dimethylethyl)-1-ethyl-4,5-dihydro-1H-pyrazole-5-carboxamide]
pest or weed control at 500 g/ha [1, 12]: 20%
pest or weed control at 2000 g/ha [1, 13]: 40%
pest or weed control at 2000 g/ha [1, 14]: 25%
pest or weed control at 500 g/ha [1, 15]: 5%
pest or weed control at 500 g/ha [2, 16]: 45%
pest or weed control at 2000 g/ha [2, 17]: 45%
pest or weed control at 2000 g/ha [2, 18]: 100%
pest or weed control at 500 g/ha [2, 19]: 95%
pest or weed control at 62 g/ha [3]: 100%
pest or weed control at 125 g/ha [3]: 100%
pest or weed control at 250 g/ha [3]: 100%
pest or weed control at 500 g/ha [3]: 100%
pest or weed control at 62 g/ha [4]: 70%
pest or weed control at 250 g/ha [4]: 95%
pest or weed control at 500 g/ha [4]: 100%
pest or weed control at 62 g/ha [5]: 10%
pest or weed control at 125 g/ha [5]: 60%
pest or weed control at 250 g/ha [5]: 70%
pest or weed control at 500 g/ha [5]: 85%
pest or weed control at 62 g/ha [6]: 85%
pest or weed control at 125 g/ha [6]: 90%
pest or weed control at 250 g/ha [6]: 100%
pest or weed control at 500 g/ha [6]: 100%
pest or weed control at 62 g/ha [7]: 70%
pest or weed control at 125 g/ha [7]: 90%
pest or weed control at 250 g/ha [7]: 100%
pest or weed control at 500 g/ha [7]: 100%
pest or weed control at 62 g/ha [8]: 100%
pest or weed control at 125 g/ha [8]: 100%
pest or weed control at 250 g/ha [8]: 100%
pest or weed control at 500 g/ha [8]: 100%
plant injury at 62 g/ha [9]: 60%
plant injury at 250 g/ha [9]: 90%
plant injury at 500 g/ha [9]: 95%
pest or weed control at 62 g/ha ([10]; scale 0 to 100, read-out: Sedge, Umbrella plant response rating): 55%
pest or weed control at 125 g/ha [10, 20]: 70%
pest or weed control at 250 g/ha [10, 21]: 80%
pest or weed control at 500 g/ha [10, 22]: 95%
pest or weed control at 62 g/ha ([11]; scale 0 to 100, read-out: Ducksalad plant response rating): 60%
pest or weed control at 125 g/ha [11, 23]: 70%
pest or weed control at 250 g/ha [11, 24]: 85%
pest or weed control at 500 g/ha [11, 22]: 90%
